Laboratory results from ChEMBL document CHEMBL3396966, “In vitro studies of antimicrobial activity of Gly-His-Lys conjugates as potential and promising candidates for therapeutics in skin and tissue infections” (2015).
The source made the active and inactive calls. The rule behind the calls is not given here. Non-standard residues stand in square brackets, D forms with d. Residues, ends and D or L forms follow the SMILES beside them. ξ: configuration not given here. ξHyp = O=C(O)C1CC(O)CN1

Legend:
Escherichia coli [1] = assay: Antimicrobial activity against Escherichia coli after 16 to 20 hrs by broth micro-dilution method; assay type: functional, organism-based
Escherichia coli [2] = assay: Bactericidal activity against Escherichia coli up to 18 hrs by time-kill assay; assay type: functional, organism-based
Staphylococcus aureus [3] = assay: Bacteriostatic activity against Staphylococcus aureus after 16 to 20 hrs by broth micro-dilution method; assay type: functional, organism-based
Pseudomonas aeruginosa [4] = assay: Bacteriostatic activity against Pseudomonas aeruginosa PCM 2562 (ATCC9027) after 16 to 20 hrs by broth micro-dilution method; assay type: functional, organism-based
Pseudomonas aeruginosa [5] = assay: Bactericidal activity against Pseudomonas aeruginosa PCM 2562 (ATCC9027) after 18 hrs by broth micro-dilution method; assay type: functional, organism-based
Staphylococcus aureus [6] = assay: Bactericidal activity against Staphylococcus aureus after 16 to 20 hrs by broth micro-dilution method; assay type: functional, organism-based
Pseudomonas aeruginosa [7] = assay: Bactericidal activity against Pseudomonas aeruginosa PCM 2562 (ATCC9027) after 16 to 20 hrs by broth micro-dilution method; assay type: functional, organism-based
Staphylococcus aureus [8] = assay: Bactericidal activity against Staphylococcus aureus at 8 times MIC after 18 hrs by time-kill assay; assay type: functional, organism-based
Pseudomonas aeruginosa [9] = assay: Bactericidal activity against Pseudomonas aeruginosa PCM 2562 (ATCC9027) after 4 hrs by broth micro-dilution method; assay type: functional, organism-based
Staphylococcus aureus [10] = assay: Bactericidal activity against Staphylococcus aureus at 4 times MIC up to 18 hrs by time-kill assay
Staphylococcus aureus [11] = assay: Bactericidal activity against Staphylococcus aureus up to 4 times MIC up to 18 hrs by time-kill assay; assay type: functional, organism-based
Candida albicans [12] = assay: Fungicidal activity against Candida albicans at 4 to 8 times MIC after 4 hrs by time-kill assay; assay type: functional, organism-based
Candida albicans [13] = assay: Fungicidal activity against Candida albicans at 250 ug/ml by time-kill assay; assay type: functional, organism-based
Candida albicans [14] = assay: Fungicidal activity against Candida albicans at 8 times MIC after 4 hrs by time-kill assay; assay type: functional, organism-based
Staphylococcus aureus [15] = assay: Antimicrobial activity against Staphylococcus aureus after 16 to 20 hrs by broth micro-dilution method; assay type: functional, organism-based

CC(=O)NCC(=O)N1CC(O)CC1C(=O)N[C@H](CCCCN)C(=O)O (stereo not given in full)
Activity (Escherichia coli [1]): Active

CCCCCCCCCCCC(=O)NCC(=O)N1CC(O)CC1C(=O)N[C@@H](CCCCN)C(=O)O (stereo not given in full)
Activity (Escherichia coli [2]): Active | Activity (Staphylococcus aureus [3]): Active | Activity (Pseudomonas aeruginosa [4]): Active | Activity (Pseudomonas aeruginosa [5]): Active | Activity (Staphylococcus aureus [6]): Active | Activity (Pseudomonas aeruginosa [7]): Active | Activity (Escherichia coli [1]): Active | Activity (Staphylococcus aureus [8]): Active | Activity (Pseudomonas aeruginosa [9]): Active

CCCCCCCCCCCC(=O)NCC(=O)N1CC(O)CC1C(=O)N[C@H](CCCCN)C(=O)O (stereo not given in full)
Activity (Escherichia coli [2]): Active | Activity (Escherichia coli [1]): Active | Activity (Staphylococcus aureus [10]): Active | Activity (Staphylococcus aureus [11]): Active

CCCCCCCCCCCCCCCCCC(=O)NCC(=O)N1CC(O)CC1C(=O)N[C@@H](CCCCN)C(=O)O (stereo not given in full)
Activity (Escherichia coli [2]): Active | Activity (Candida albicans [12]): Active | Activity (Candida albicans [13]): Active | Activity (Candida albicans [14]): Active | Activity (Staphylococcus aureus [11]): Active

CCCCCCCCCCCCCCCCCC(=O)NCC(=O)N1CC(O)CC1C(=O)N[C@H](CCCCN)C(=O)O (stereo not given in full)
Activity (Escherichia coli [2]): Active

CC(=O)NCC(=O)NCC(=O)N1CC(O)CC1C(=O)N[C@@H](CCCCN)C(=O)O (stereo not given in full) (Ac-GG[ξHyp]K-OH)
Activity (Escherichia coli [2]): Active

CSCC[C@H](NC(=O)C1CC(O)CN1C(=O)CN)C(=O)N[C@@H](CCCCN)C(=O)O (stereo not given in full) (H-G[ξHyp]MK-OH)
Activity (Escherichia coli [2]): Active | Activity (Escherichia coli [1]): inactive | Activity (Staphylococcus aureus [15]): Active

NCCCC[C@H](NC(=O)[C@H](Cc1cnc[nH]1)NC(=O)CN)C(=O)O (H-Gly-His-Lys-OH)
Activity (Staphylococcus aureus [3]): Active | Activity (Pseudomonas aeruginosa [4]): Active | Activity (Escherichia coli [1]): Active | Activity (Staphylococcus aureus [15]): Active

CSCC[C@H](NC(=O)CN)C(=O)N[C@@H](CCCCN)C(=O)O (H-Gly-Met-Lys-OH)
Activity (Escherichia coli [2]): Active | Activity (Escherichia coli [1]): inactive
